Data published in patent publication US11098055B2, “Ester ACC inhibitors and uses thereof” (Gilead Apollo, LLC, priority 2015, dated 2021).
In brackets after ≈: the same amount, converted by molar mass. Where two headings read alike, the source gives them in different places.

Experiments:
[1] = test system: Botrtyis cinerea (Bc); assay: Growth inhibition assay of fungal pathogens; assay type: cell-based; settings: 48 h, read-out: Concentration at 90% Inhibition Bc
Procedure, shortened: (§1)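 Inoculum density for each fungus is set from 48 h growth curves, and spores are suspended in 17% V8 liquid medium. Compounds are added to final 50, 10, 2 ppm or 2, 0.4, 0.08 ppm. Plates are read by OD600 at 24 and 48 h; inhibition is scored at 48 h versus 2% DMSO.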

[2] = test system: Diplodia maydis (Dm); assay: Growth inhibition assay of fungal pathogens; assay type: cell-based; settings: Stenocarpella maydis, 48 h, read-out: Concentration at 90% Inhibition Dm
Procedure, shortened: as §1

[3] = test system: Fusarium moniliforme (Fm); assay: Growth inhibition assay of fungal pathogens; assay type: cell-based; settings: Fusarium verticillioides, 48 h, read-out: Concentration at 90% Inhibition Fm
Procedure, shortened: as §1

[4] = test system: Collectotrichum graminicola (Cg); assay: Growth inhibition assay of fungal pathogens; assay type: cell-based; settings: 48 h, read-out: Concentration at 90% Inhibition Cg
Procedure, shortened: as §1

[5] = test system: Phytophthora capsici (Pc); assay: Growth inhibition assay of fungal pathogens; assay type: cell-based; settings: 48 h, read-out: Concentration at 90% Inhibition Pc
Procedure, shortened: as §1

[6] = test system: Fusarium virguliforme (Fv); assay: Growth inhibition assay of fungal pathogens; assay type: cell-based; settings: 48 h, read-out: Concentration at 90% Inhibition Fv
Procedure, shortened: as §1

[7] = test system: Septoria tritici (St); assay: Growth inhibition assay of fungal pathogens; assay type: cell-based; settings: Zymoseptoria tritici, 48 h, read-out: Concentration at 90% Inhibition St
Procedure, shortened: as §1

[8] = test system: Rhizoctonia solani (Rs); assay: Growth inhibition assay of fungal pathogens; assay type: cell-based; settings: 48 h, read-out: Concentration at 90% Inhibition Rs
Procedure, shortened: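 Spores, or mycelial plugs for Rhizoctonia, in 17% V8 medium (¼ PDB for plugs) were exposed to compound at final 50, 10 and 2 ppm or 2, 0.4 and 0.08 ppm, with 2% DMSO. Growth was read by OD600 with blank subtraction plus visual rating; percent inhibition at 48 h is relative to 2% DMSO control.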

[9] = test system: C. krusei ATCC 6258; assay: Anti-Fungal (Candida) Activity Assay, broth microtiter MIC; assay type: cell-based, Candida krusei; settings: Pichia kudriavzevii, ATCC6258, 48 h, 3 replicates, MIC read at 48 h
Procedure, shortened: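 Broth microdilution per CLSI M27-A3 in RPMI 1640 + MOPS, at a final inoculum of 2.5×10^3 CFU/mL. Compound DMSO stocks were diluted in water to a 128 μg/mL working solution. MIC was read visually against the growth control at 48 h.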

| SMILES | IC90 ([1]; Table 4a) [µg/mL] | IC90 ([1]; Table 4b) [µg/mL] | IC90 ([2]; Table 4a) [µg/mL] | IC90 ([2]; Table 4b) [µg/mL] | IC90 ([3]; Table 4a) [µg/mL] | IC90 ([3]; Table 4b) [µg/mL] | IC90 ([4]; Table 4a) [µg/mL] | IC90 ([4]; Table 4b) [µg/mL] | IC90 ([5]; Table 4a) [µg/mL] | IC90 ([5]; Table 4b) [µg/mL] | IC90 ([6]; Table 4a) [µg/mL] | IC90 ([6]; Table 4b) [µg/mL] | IC90 ([7]; Table 4a) [µg/mL] | IC90 ([7]; Table 4b) [µg/mL] | IC90 ([8]; Table 4a) [µg/mL] | IC90 ([8]; Table 4b) [µg/mL] | MIC ([9]; Table 3a) [µg/mL] | MIC ([9]; Table 3b (additional results)) [µg/mL] |
| --- | --- | --- | --- | --- | --- | --- | --- | --- | --- | --- | --- | --- | --- | --- | --- | --- | --- | --- |
| CCOC(=O)c1sc2c(c1C)c(=O)n(C(C)(C)C(=O)N1CCCC1)c(=O)n2C[C@H](OCCO)c1cc(F)ccc1OC [Compound I-12, (R)-ethyl 1-(2-(5-fluoro-2-methoxyphenyl)-2-(2-hydroxy-ethoxy)ethyl)-5-methyl-3-(2-methyl-1-oxo-1-(pyrrolidin-1-yl)propan-2-yl)-2,4-dioxo-1,2,3,4-tetrahydrothieno[2,3-d]pyrimidine-6-carboxylate] | 2 (≈ 3.3 µM) | 2 (≈ 3.3 µM) | 2 (≈ 3.3 µM) | 2 (≈ 3.3 µM) | 0.4 (≈ 0.66 µM) | 0.4 (≈ 0.66 µM) | 0.4 (≈ 0.66 µM) | 0.4 (≈ 0.66 µM) | ≥ 50 | ≥ 50 | 2 (≈ 3.3 µM) | 2 (≈ 3.3 µM) | ≥ 50 | ≥ 50 | 0.4 (≈ 0.66 µM) | 0.4 (≈ 0.66 µM) | 2.1 to 4 (≈ 3.47 to 6.6 µM) | 2.1 to 4 (≈ 3.47 to 6.6 µM) |
| CCOC(=O)c1sc2c(c1C)c(=O)n(C(C)(C)C(=O)N1CCCC1)c(=O)n2C[C@H](OCCOC)c1cc(F)ccc1OC [Compound I-13, (R)-ethyl 1-(2-(5-fluoro-2-methoxyphenyl)-2-(2-methoxy-ethoxy)ethyl)-5-methyl-3-(2-methyl-1-oxo-1-(pyrrolidin-1-yl)propan-2-yl)-2,4-dioxo-1,2,3,4-tetrahydrothieno[2,3-d]pyrimidine-6-carboxylate] | 2 (≈ 3.23 µM) | 2 (≈ 3.23 µM) | ≥ 50 | 10 (≈ 16.1 µM) | 0.4 (≈ 0.645 µM) | 0.4 (≈ 0.645 µM) | 2 (≈ 3.23 µM) | 2 (≈ 3.23 µM) | ≥ 50 | ≥ 50 | 2 (≈ 3.23 µM) | 2 (≈ 3.23 µM) | ≥ 50 | ≥ 50 | ≥ 50 | 10 (≈ 16.1 µM) | > 4.1 | 2.1 to 4 (≈ 3.39 to 6.45 µM) |
| CCOC(=O)c1sc2c(c1C)c(=O)n(C(C)(C)C(N)=O)c(=O)n2C[C@H](OCCC#N)c1cc(F)ccc1OC [Compound I-14, (R)-ethyl 3-(1-amino-2-methyl-1-oxopropan-2-yl)-1-(2-(2-cyanoethoxy)-2-(5-fluoro-2-methoxyphenyl)ethyl)-5-methyl-2,4-dioxo-1,2,3,4-tetrahydro-thieno[2,3-d]pyrimidine-6-carboxylate] | 2 (≈ 3.57 µM) | 2 (≈ 3.57 µM) | ≥ 50 | ≥ 50 | 0.4 (≈ 0.714 µM) | 0.4 (≈ 0.714 µM) | ≥ 50 | ≥ 50 | ≥ 50 | ≥ 50 | ≥ 50 | 10 (≈ 17.8 µM) | ≥ 50 | ≥ 50 | ≥ 50 | 10 (≈ 17.8 µM) | > 4.1 | 2.1 to 4 (≈ 3.75 to 7.14 µM) |
| CCOC(=O)c1sc2c(c1C)c(=O)n(C(C)(C)C(=O)NC(C)C)c(=O)n2C[C@H](OCCC#N)c1cc(F)ccc1OC [Compound I-15, (R)-ethyl 1-(2-(2-cyanoethoxy)-2-(5-fluoro-2-methoxy-phenyl)ethyl)-3-(1-(isopropylamino)-2-methyl-1-oxopropan-2-yl)-5-methyl-2,4-dioxo-1,2,3,4-tetrahydrothieno[2,3-d]pyrimidine-6-carboxylate] | 0.4 (≈ 0.664 µM) | 0.4 (≈ 0.664 µM) | 0.08 (≈ 0.133 µM) | 0.08 (≈ 0.133 µM) | 0.08 (≈ 0.133 µM) | 0.08 (≈ 0.133 µM) | 0.08 (≈ 0.133 µM) | 0.08 (≈ 0.133 µM) | ≥ 50 | 10 (≈ 16.6 µM) | 0.4 (≈ 0.664 µM) | 0.4 (≈ 0.664 µM) | ≥ 50 | 10 (≈ 16.6 µM) | 0.08 (≈ 0.133 µM) | 0.08 (≈ 0.133 µM) | 0.25 to 1 (≈ 0.415 to 1.66 µM) | 0.25 to 1 (≈ 0.415 to 1.66 µM) |
| CCOC(=O)c1sc2c(c1C)c(=O)n(C(C)(C)C(=O)N1CCCC1)c(=O)n2C[C@H](OCCC#N)c1cc(F)ccc1OC [Compound I-16, (R)-ethyl 1-(2-(2-cyanoethoxy)-2-(5-fluoro-2-methoxy-phenyl)ethyl)-5-methyl-3-(2-methyl-1-oxo-1-(pyrrolidin-1-yl)propan-2-yl)-2,4-dioxo-1,2,3,4-tetrahydrothieno[2,3-d]pyrimidine-6-carboxylate] | 2 (≈ 3.25 µM) | 2 (≈ 3.25 µM) | 2 (≈ 3.25 µM) | 2 (≈ 3.25 µM) | 0.08 (≈ 0.13 µM) | 0.08 (≈ 0.13 µM) | 2 (≈ 3.25 µM) | 2 (≈ 3.25 µM) | ≥ 50 | ≥ 50 | 2 (≈ 3.25 µM) | 2 (≈ 3.25 µM) | ≥ 50 | ≥ 50 | 0.4 (≈ 0.651 µM) | 0.4 (≈ 0.651 µM) | > 4.1 | 2.1 to 4 (≈ 3.42 to 6.51 µM) |
| CCOC(=O)c1sc2c(c1C)c(=O)n(C(C)(C)C(N)=O)c(=O)n2C[C@H](OCCO)c1cc(F)ccc1OC [Compound I-17, (R)-ethyl 3-(1-amino-2-methyl-1-oxopropan-2-yl)-1-(2-(5-fluoro-2-methoxyphenyl)-2-(2-hydroxyethoxy)ethyl)-5-methyl-2,4-dioxo-1,2,3,4-tetrahydro-thieno[2,3-d]pyrimidine-6-carboxylate] | ≥ 50 | 10 (≈ 18.1 µM) | ≥ 50 | ≥ 50 | 2 (≈ 3.63 µM) | 2 (≈ 3.63 µM) | ≥ 50 | ≥ 50 | ≥ 50 | ≥ 50 | ≥ 50 | ≥ 50 | ≥ 50 | ≥ 50 | 2 (≈ 3.63 µM) | 2 (≈ 3.63 µM) | > 4.1 | 2.1 to 4 (≈ 3.81 to 7.25 µM) |
